Reference: patent US12280138B2, “Dedifferentiated cell extract of Bletilla and method for whitening, anti-oxidation and anti-wrinkling applying the same, and cosmetic comprising the same” (CHLITINA INTELLIGENCE LIMITED, priority 2021, dated 2025)

Assays:
[1] = tested on: zebrafish embryos; assay: Whitening efficacy in zebrafish experiment (melanin plaques); assay type: in vivo; conditions: 10 mM (about 1421 μg/ml)
Method: The wild-type zebrafish were stimulated to spawn, and the eggs spawned within one hour were collected. Upon 9 hours after fertilization, the embryos were screened by microscope to confirm the developmental state after fertilization. Each group had 12 fish embryos. The E3 culture medium, which was the zebrafish embryo culture medium, served as the control group. The positive control group was added with kojic acid (Kojic acid). Each experimental group was added with Example 1, Comparative example 1 and Comparative example 2, respectively. As zebrafish embryos produced melanin within 24 hours after fertilization, the treatment finished before the production of melanin, and the melanin production state in the hatched fish was observed upon 72 hours after fertilization. First, the fish was anesthetized and placed on a flat surface. The photo was taken from a top view, and the melanin plaques were analyze by the software of ImageJ. The intensity of the melanin plaque in the control group served as the standard, that is, the melanin amount thereof was 100%. The relative melanin amounts of the rest of the groups were calculated.

[2] = tested on: melanosis; conditions: 1% kojic acid applied to male and female subjects; cited from earlier work

O=c1cc(CO)occ1O [kojic acid]
Inhibition rate of melanin production [1]: about 55% | melanosis [2]: significantly inhibited
